In data set [1] the test system is PC-3 xenografts (prostate adenocarcinoma, grade IV). Nature of the data set: PC-3 xenograft anti-tumor activity. The method, then:
Compound 56 was tested for its anti-tumor activity in PC-3 and A549 xenografts. To generate xenografts in mice, exponentially growing cultures of approximately 10^6 PC-3 cells (prostate adenocarcinoma, grade IV) or A549 cells (lung carcinoma) were injected subcutaneously according to the British practice of bilateral trocar implants at the axillary region of 6-8 weeks old male (PC-3 cells) or female (A549 cells) Nod/Scid mice. The two tumor cell inoculums were added together for each mouse, thus producing a tumor burden per mouse value for data analysis. The advantage of the British system is reduced mouse-to-mouse variability and, thus, the ability to decrease the total number of animals per group, with five or six being sufficient for accurate data analysis of tumor response and evaluation of toxicities.
Tumor volume was calculated according to the formula [(axb2)/2], where a=length and b=width of the tumor as measured with a vernier's caliper (measurements were performed twice a week). All administrations were intraperitoneal. Treated animals received a single injection according to the schedule described for each study (see below). In addition to tumor volume, the parameter, % DT/DC, was calculated, where DT=T−Do and DC=C−Do (Do is the average tumor volume at the beginning of the treatment; T and C are the volumes of treated and untreated tumors, respectively, at a specified day). Optimal DT/DC value was used as a measure of drug activity. Losses of weight, neurological disorders and behavioral and dietary changes were also recorded as indicators of toxicity (side effects). The experiment was terminated when tumor size in untreated animals reached a volume of about 1000-1500 mm^3. All animals were treated according to Greek laws (2015/92), guidelines of the European Union and the European council (86/609 and ETS123, respectively), and Compliance with Standards for Human Care and Use of Laboratory Animals, NIH, USA (Assurance No. A5736-01).
In order to develop PC-3 xenografts, male mice 6-8 weeks old were inoculated bilateral at the two axilla regions at day 0.
Compound 56 was administered intraperitoneallly at the following dpis: d13, d14, d15, d16, d17, d20, d21, d22, d23, d24, d27, d28, 29, d30.

In data set [2] the test system is SF295 (CNS). Description: SRB assay, SF295. The format is cell-based, human. The method, then: (§1) SRB assays were performed according to standard National Cancer Institute Guidelines. Briefly, human tumor cells from different cancer panels were seeded into 96 well plates in 100 μL (plating densities ranging from 5-40,000 cells/well depending on the doubling time of individual cell lines) in serum-containing media for twenty-four hours prior to the addition of the compounds to be assayed. After 24 hours, one plate of each cell line was fixed in situ with trichloroacetic acid (TCA). The fixed slides were used to determine the cell population for each cell line at the time of drug addition (Tz). Each compound to be tested was solubilized in DMSO and the desired concentration was then added to the medium and diluted serially 1:10 to provide a total of five or ten drug concentrations plus control (in a final volume of 200 μL). The starting dose before any dilution was 100 uM for all compounds.
(§2) Following drug addition, each culture was incubated for forty-eight hours. The assay was terminated with the addition of cold TCA. The supernatant was discarded, and the plates were washed with tap water and air dried. Sulforhodamine B (SRB) solution was then added to each well. After staining, the bound stain was solubilized and the absorbance was read on an automated plate reader at a wavelength of 515 nm.
(§3) Using the absorbance measurements [time zero, (Tz), control growth, (C), and test growth in the presence of drug at the ten concentration levels (Ti)], the percentage growth was calculated at each of the drug concentrations levels. Percentage growth inhibition was calculated as:
(§4) [(Ti−Tz)/(C−Tz)]×100 for concentrations for which Ti>/=Tz […]
(§5) Three dose response parameters were calculated for each experimental agent. […] The drug concentration resulting in total growth inhibition (TGI) was calculated from Ti=Tz. […]
(§6) Values were calculated for each of these three parameters when the level of activity was reached; however, if the effect was not reached or was exceeded, the value for that parameter was expressed as greater or less than the maximum or minimum concentration tested. […]
In general terms: The SRB assay estimates cell density from bound dye.

Data set [3] deals with UAC032 (Melanoma). Description: SRB assay, UAC032. The format is cell-based, human. The conditions noted are these: 48 h. As for the experimental part:
as §1, §2, §3, §4, §5, §6

The test system of data set [4] is membrane androgen receptor. Description: Membrane androgen receptor competition assay, LNCaP cells. It counts as binding. The settings on record: 40 μM compound 30 minutes before 40 μM testosterone-HSA-FITC, FIG. 3A.
Experimental: After a 24 hour serum starvation period, cells were incubated with 40 μM testosterone-HSA-FITC for 1 hour at room temperature. […] Human serum albumin-FITC was used as a control for background staining. After permeabilization with ice-cold acetone for 4 minutes at room temperature, cell nuclei were stained with DAPI. Coverslips were mounted on slides by using the Slow Fade/Antifade Reagent (Molecular Probes) and studied under a LEICA DMLB microscope, equipped with the appropriate fluorescence filters and a Leica DC 300F camera. Specimens were analyzed using the Leica FW4000 computer program.
To determine the capacity of a given compound to preclude binding of fluorescent testosterone-HSA conjugates (TAC) to the membrane androgen receptor, starved LNCaP or DU145 cells on coverslips prepared as described above were pre-treated with 40 μM of the indicated compound for 30 minutes prior to the addition of testosterone-HSA-FITC. At the end of the incubation period, cells were washed twice with PBS and 40 μM of testosterone-HSA-FITC was added. Specimens were prepared and analyzed as described above.

These results are taken from patent US20120238488A1, “COMPOUNDS AND METHODS FOR TREATING NEOPLASIA” (priority 2009, published 2012).

As usually defined, the GI50 is the concentration giving 50% growth inhibition. Lower therefore signals greater sensitivity of the cells. The TGI is the concentration giving total growth inhibition. A lower TGI goes with greater sensitivity of the cells.

Turning to `C[C@]12CCC(=NOC3CCNC3)CC1CCC1C2CC[C@]2(C)C(=O)CCC12` (stereo partly drawn) [Compound 56, (10S,13S)-10,13-dimethyl-3-(pyrrolidin-3-yloxyimino)tetradecahydro-1H-cyclopenta[a]phenanthren-17(2H)-one], the “post mortem analysis on excised PC-3 tumors: tumor growth inhibition” value in data set [1] (17 mgk intraperitoneal) is recorded as “statistical significant tumor growth inhibition”. Moreover, the “toxicity (body weight, deaths)” value in data set [1] (PC-3 xenograft mice, compound 56 17 mgk, digoxin 2 mgk, intraperitoneal) is “not toxic”. Also, the “metastases versus control group (post mortem)” value in data set [1] (PC-3 xenografts, 17 mgk intraperitoneal) was “suppression of bone lymph node and front axilla metastases”. The “optimal DT/DC” value in data set [1] (PC-3 xenografts, 17 mgk intraperitoneal, day 34, p=6×10^−6) came out at 48.71%. The “anti-tumor activity in PC-3 xenografts (FIG. 2A)” value in data set [1] (mouse, in vivo) is recorded as “has anti-tumor activities”.

With `C[C@]12CCC(=NOCCN)C=C1CCC1C2CC[C@]2(C)C(=O)CCC12` (stereo partly drawn) [Compound 12, (10R,13S)-3-(2-aminoethoxyimino)-10,13-dimethyl-2,3,7,8,9,10,11,12,13,14,15,16-dodecahydro-1H-cyclopenta[a]phenanthren-17(6H)-one], the CC50 in data set [2] (Homo sapiens, SF-295, 48 h, read-out: LC50) came to 9.04 µM; in data set [3] (Homo sapiens, read-out: LC50), 49.5 µM. For the same compound, the GI50 in data set [2] (Homo sapiens, SF-295, SF295, SRB, 48 h) was 3.26 µM; in data set [3] (Homo sapiens, UAC032, SRB), 4.57 µM. Also, the TGI was found to be 6.15 µM in data set [2] (SF295, SRB, 48 h) and 7.64 µM in data set [3] (UAC032, SRB). Besides, the “membrane fluorescence of TAC-FITC after pre-treatment (binding to mAR precluded)” value in data set [4] is recorded as “devoid of membrane fluorescence”.
